Measured values reported in PMC8582472, “Investigation of Novel Small Molecular TRPM4 Inhibitors in Colorectal Cancer Cells” (Cancers, 2021).

Molecular target: TRPM4 (Homo sapiens, UniProt Q8TD43)
Assay: whole-cell patch clamp of endogenous TRPM4 currents in HCT116 cells
Assay type: cell-based

TRPM4, sequence (Q8TD43 whole entry): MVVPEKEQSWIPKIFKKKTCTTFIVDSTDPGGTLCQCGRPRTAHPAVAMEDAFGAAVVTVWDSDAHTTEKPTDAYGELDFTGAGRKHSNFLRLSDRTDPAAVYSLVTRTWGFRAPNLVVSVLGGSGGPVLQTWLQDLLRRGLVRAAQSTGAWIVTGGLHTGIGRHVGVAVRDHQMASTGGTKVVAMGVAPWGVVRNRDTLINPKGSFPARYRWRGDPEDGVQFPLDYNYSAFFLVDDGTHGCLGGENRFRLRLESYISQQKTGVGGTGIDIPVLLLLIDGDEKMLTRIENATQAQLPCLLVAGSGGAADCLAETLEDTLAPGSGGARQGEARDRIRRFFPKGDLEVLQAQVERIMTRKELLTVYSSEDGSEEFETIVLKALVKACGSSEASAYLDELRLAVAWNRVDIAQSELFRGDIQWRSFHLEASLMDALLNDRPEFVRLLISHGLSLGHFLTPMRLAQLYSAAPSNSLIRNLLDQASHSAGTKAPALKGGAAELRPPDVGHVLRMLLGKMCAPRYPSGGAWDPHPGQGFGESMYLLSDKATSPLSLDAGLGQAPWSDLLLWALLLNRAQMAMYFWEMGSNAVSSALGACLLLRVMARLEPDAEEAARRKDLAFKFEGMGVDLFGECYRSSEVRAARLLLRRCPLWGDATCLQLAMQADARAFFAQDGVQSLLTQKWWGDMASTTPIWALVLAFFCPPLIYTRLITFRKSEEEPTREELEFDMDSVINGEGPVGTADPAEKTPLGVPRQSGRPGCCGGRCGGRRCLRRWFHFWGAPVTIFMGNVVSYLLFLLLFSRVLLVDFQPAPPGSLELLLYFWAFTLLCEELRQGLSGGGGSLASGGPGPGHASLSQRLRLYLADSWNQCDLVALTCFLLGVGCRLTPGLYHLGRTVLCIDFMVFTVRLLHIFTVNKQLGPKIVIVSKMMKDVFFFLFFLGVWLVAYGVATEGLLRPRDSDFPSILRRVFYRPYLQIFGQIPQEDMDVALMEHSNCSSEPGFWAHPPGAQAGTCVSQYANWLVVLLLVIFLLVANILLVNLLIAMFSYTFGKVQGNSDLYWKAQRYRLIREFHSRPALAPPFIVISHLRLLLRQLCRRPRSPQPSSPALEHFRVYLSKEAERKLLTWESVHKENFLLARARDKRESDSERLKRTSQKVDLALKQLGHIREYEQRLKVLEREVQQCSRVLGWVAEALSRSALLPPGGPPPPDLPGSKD

`Cc1cc(Cl)ccc1OC(C)C(=O)Nc1cc(Cl)ccc1C(=O)O` (stereo not shown) [LBA, 4-chloro-2-(2-(4-chloro-2-methylphenoxy)propanamido) benzoic acid] gave an IC50 of 1.84 µM.
